Results as given in article PMC10041537, “Molecular origins of mutational spectra produced by the environmental carcinogen N-nitrosodimethylamine and SN1 chemotherapeutic agents” (NAR Cancer, 2023).

Columns and labels:
[1] = tested on: C57BL/6J gptΔ mouse embryonic fibroblasts (MEFs); assay: Duplex sequencing, high-resolution mutational spectra of MEFs treated with alkylating agents; format: cell-based; conditions: for predominant mutation type of mutational spectrum: doses generating no more than 50% growth inhibition; for cosine similarity of mutational spectra: with each other, with NDMA spectra from WT liver and lung, Mgmt-deficient liver, and COSMIC SBS11
Experimental: C57BL/6J gptΔ mouse embryonic fibroblasts (MEFs) were established and maintained in high glucose, GlutaMAX DMEM (Gibco) supplemented with 10% FBS (VWR Life Sciences), sodium pyruvate (1 mM, Gibco), penicillin (100 IU) and streptomycin (100 μg/ml) (Corning) as previously described ([40]). […] For growth-inhibition assays, 2.5 × 10^4 cells were seeded in 6-well plates and incubated overnight. Cells were treated with SN1 alkylating agents as follows. TMZ (Sigma-Aldrich): 50, 100 and 200 μM (stock solutions in DMSO (Sigma-Aldrich)) in FBS-free complete media for 24 h. STZ (Sigma-Aldrich): 500, 1000 and 2000 μM (stock solutions in 0.1 M citrate buffer, pH 4.5) in HBSS, pH 7.4 for 6 h. MNU (Sigma-Aldrich): 125, 250 and 500 μM (stock solutions in 0.1 M citrate buffer, pH 4.5) in HBSS, pH 7.4 for 1 h. After the treatments, cells were washed in PBS (Gibco) and cultured in complete media for another 48 h. Cell growth was analyzed by determining percentages of cell numbers from treatment and untreated control groups by Coulter counter. For gpt assays, 4 × 10^5 cells were seeded into 15 cm tissue culture dishes (4 dishes per group) and treated with TMZ, STZ and MNU, as described above, at 60–70% confluence. Viable cells were harvested and washed twice in PBS.
The gptΔ assay as described above was also performed on MEFs derived from the gptΔ mouse (see above) that were treated with the toxicants studied here. For the cell culture studies, genomic DNA from 2 × 10^6 cells per group was prepared using the MegaLong DNA Isolation Kit (G-Biosciences) according to the manufacturer's instructions.
To determine the identity of mutations and the sequence contexts in which they occur, we utilized a form of error-corrected sequencing called duplex sequencing (DS). Previously, we described how DS can be used directly on genomic samples derived from the gptΔ mouse to yield high-resolution mutational spectra in an unbiased (unselected) manner ([49]). Unlike the traditional gptΔ assay, DS evaluates the mutations throughout the entire 6382 bp transgenic region (which contains the gpt gene), without the need for a phenotypic selection. In the present work, 6.4 kb gpt-containing plasmids from gptΔ mouse livers and cell culture were isolated using a Miniprep Kit (Qiagen) following instructions of the manufacturer. Approximately 6 μg of plasmid DNA was diluted in 1× TE buffer-low EDTA, pH 8 (Thermo Scientific), transferred to a microTUBE AFA Fiber Pre-Slit Snap-Cap (Covaris) and sonicated using a Covaris E220 Focused-ultrasonicator. The following program was used to obtain 300–350 bp fragments: peak incident power = 140 W, duty factor = 10%, cycles per burst = 200, treatment time = 80 s, temperature = 4–7°C. DS libraries for gptΔ C57BL/6J mice and MEFs were prepared using the NEBNext Ultra II DNA Library Prep (E7103, NEB) or as described in Chawanthayatham et al. ([49]) and sequenced on a NextSeq500 or NovaSeq 6000 Illumina platform by using a 150 bp paired-end protocol (MIT BioMicro Center). DS libraries for the gptΔ mouse lungs and Mgmt^−/− mice were prepared using an input of 1 μg or 500 ng genomic DNA, respectively, using a TwinStrand Biosciences, Inc. Mouse Mutagenesis Kit according to the manufacturer's protocol. This kit uses probes that hybridize to 20 genomic regions, each 2.4 kb long. The genomic coordinates are provided in Supplementary Table S1. These probes were purposely selected to map in intronic and intergenic regions, to avoid selection bias. The libraries were sequenced on an Illumina NovaSeq 6000 DNA sequencer on an S4 flow cell using a 150 bp paired-end protocol (MIT BioMicro Center).
For each sample, the two fastq files generated by the Illumina sequencer were converted into an unaligned bam file, using Picard Tools. The resulting bam file was processed using UnifiedConsensusMaker.py (version 3.0) as available from the Kennedy Lab at University of Washington (https://github.com/Kennedy-Lab-UW/Duplex-Sequencing). […]

[2] = tested on: human induced pluripotent stem cells; set-up: method as in PMID 30982602; conditions: cited from earlier work

| Compound | sequence context of mutations [1] | predominant mutation type of mutational spectrum [1] | cosine similarity of mutational spectra [1] | dominant mutation type of mutational spectrum [2] |
| --- | --- | --- | --- | --- |
| CN(N=O)C(N)=O [MNU, N-methyl-N-nitrosourea] | 5’-PuGN-3’ | GC→AT mutations | > 0.9 | AT→GC mutations |
| CN(N=O)C(=O)NC1C(O)OC(CO)C(O)C1O (centres unmarked) [STZ, streptozotocin] | 5’-PuGN-3’ | GC→AT mutations | > 0.9 | – |
| Cn1nnc2c(C(N)=O)ncn2c1=O [TMZ, temozolomide] | 5’-PuGN-3’ | GC→AT mutations | > 0.9 | AT→GC mutations |
